In brackets after ≈: the same amount, converted by molar mass.
What was measured:
Staphylococcus aureus [1] = assay: microbe, parasite or virus in culture; assay type: functional; conditions: time 20 hrs
[2] = Antibacterial activity against Salmonella pullorum assessed as inhibition of bacterial growth incubated for 20 hrs by absorbance based analysis; assay type: functional, Salmonella enterica subsp. enterica serovar Pullorum; conditions: Salmonella enterica
Escherichia coli = assay: microbe, parasite or virus in culture; assay type: functional; conditions: ATCC25922, time 20 hrs
Staphylococcus aureus [3] = assay: microbe, parasite or virus in culture; assay type: functional; conditions: ATCC25923, time 20 hrs
Staphylococcus aureus [4] = assay: microbe, parasite or virus in culture; assay type: functional; conditions: ATCC29213, time 20 hrs
[5] = tested on: Staphylococcus epidermidis; assay: Antibacterial activity against methicillin-resistant Staphylococcus epidermidis assessed as inhibition of bacterial growth incubated for 20 hrs by absorbance based analysis; assay type: functional

Compound	MIC (Staphylococcus aureus [1])	MIC [2]	MIC (Escherichia coli)	MIC (Staphylococcus aureus [3])	MIC (Staphylococcus aureus [4])	MIC [5]
C=C[C@]1(C)C[C@@H](OC(=O)CSc2nc3cc(Cl)ccc3c(=O)[nH]2)[C@]2(C)[C@H](C)CC[C@]3(CCC(=O)[C@H]32)[C@@H](C)[C@@H]1O	0.5 µg/mL (≈ 0.872 µM)	> 64 µg/mL	> 64 µg/mL	0.5 µg/mL (≈ 0.872 µM)	0.25 µg/mL (≈ 0.436 µM)	1 µg/mL (≈ 1.74 µM)
C=C[C@]1(C)C[C@@H](OC(=O)CSc2nc3ccccc3c(=O)n2CC)[C@]2(C)[C@H](C)CC[C@]3(CCC(=O)[C@H]32)[C@@H](C)[C@@H]1O	0.25 µg/mL (≈ 0.441 µM)	> 64 µg/mL	> 64 µg/mL	0.125 µg/mL (≈ 0.221 µM)	0.125 µg/mL (≈ 0.221 µM)	2 µg/mL (≈ 3.53 µM)
C=C[C@]1(C)C[C@@H](OC(=O)CSc2nc3ccccc3c(=O)n2C2CCCCC2)[C@]2(C)[C@H](C)CC[C@]3(CCC(=O)[C@H]32)[C@@H](C)[C@@H]1O	> 64 µg/mL	> 64 µg/mL	> 64 µg/mL	> 64 µg/mL	> 64 µg/mL	> 64 µg/mL
C=C[C@]1(C)C[C@@H](OC(=O)CSc2nc3c(c(=O)[nH]2)CCC3)[C@]2(C)[C@H](C)CC[C@]3(CCC(=O)[C@H]32)[C@@H](C)[C@@H]1O	0.25 µg/mL (≈ 0.473 µM)	> 64 µg/mL	> 64 µg/mL	0.25 µg/mL (≈ 0.473 µM)	0.25 µg/mL (≈ 0.473 µM)	1 µg/mL (≈ 1.89 µM)
C=C[C@]1(C)C[C@@H](OC(=O)CSc2nc3c(C)cccc3c(=O)[nH]2)[C@]2(C)[C@H](C)CC[C@]3(CCC(=O)[C@H]32)[C@@H](C)[C@@H]1O	0.125 µg/mL (≈ 0.226 µM)	> 64 µg/mL	> 64 µg/mL	0.25 µg/mL (≈ 0.452 µM)	0.125 µg/mL (≈ 0.226 µM)	1 µg/mL (≈ 1.81 µM)
C=C[C@]1(C)C[C@@H](OC(=O)CSc2nc3ccccc3c(=O)n2C)[C@]2(C)[C@H](C)CC[C@]3(CCC(=O)[C@H]32)[C@@H](C)[C@@H]1O	0.25 µg/mL (≈ 0.452 µM)	> 64 µg/mL	64 µg/mL (≈ 116 µM)	0.125 µg/mL (≈ 0.226 µM)	0.063 µg/mL (≈ 0.114 µM)	0.5 µg/mL (≈ 0.905 µM)
C=C[C@]1(C)C[C@@H](OC(=O)CSc2nc3cc(C)ccc3c(=O)[nH]2)[C@]2(C)[C@H](C)CC[C@]3(CCC(=O)[C@H]32)[C@@H](C)[C@@H]1O	0.5 µg/mL (≈ 0.905 µM)	> 64 µg/mL	> 64 µg/mL	0.25 µg/mL (≈ 0.452 µM)	0.5 µg/mL (≈ 0.905 µM)	2 µg/mL (≈ 3.62 µM)
C=C[C@]1(C)C[C@@H](OC(=O)CSc2nc3ccccc3c(=O)[nH]2)[C@]2(C)[C@H](C)CC[C@]3(CCC(=O)[C@H]32)[C@@H](C)[C@@H]1O	0.25 µg/mL (≈ 0.464 µM)	> 64 µg/mL	> 64 µg/mL	0.25 µg/mL (≈ 0.464 µM)	0.25 µg/mL (≈ 0.464 µM)	1 µg/mL (≈ 1.86 µM)
C=C[C@]1(C)C[C@@H](OC(=O)CSc2nc3cccc(C)c3c(=O)[nH]2)[C@]2(C)[C@H](C)CC[C@]3(CCC(=O)[C@H]32)[C@@H](C)[C@@H]1O	0.25 µg/mL (≈ 0.452 µM)	> 64 µg/mL	> 64 µg/mL	0.25 µg/mL (≈ 0.452 µM)	0.25 µg/mL (≈ 0.452 µM)	2 µg/mL (≈ 3.62 µM)
C=C[C@]1(C)C[C@@H](OC(=O)CSc2nc3cccc([N+](=O)[O-])c3c(=O)[nH]2)[C@]2(C)[C@H](C)CC[C@]3(CCC(=O)[C@H]32)[C@@H](C)[C@@H]1O	0.25 µg/mL (≈ 0.428 µM)	> 64 µg/mL	> 64 µg/mL	0.25 µg/mL (≈ 0.428 µM)	0.25 µg/mL (≈ 0.428 µM)	4 µg/mL (≈ 6.85 µM)
C=C[C@]1(C)C[C@@H](OC(=O)CSc2nc3ccc(Cl)cc3c(=O)[nH]2)[C@]2(C)[C@H](C)CC[C@]3(CCC(=O)[C@H]32)[C@@H](C)[C@@H]1O	0.25 µg/mL (≈ 0.436 µM)	> 64 µg/mL	> 64 µg/mL	0.25 µg/mL (≈ 0.436 µM)	0.25 µg/mL (≈ 0.436 µM)	1 µg/mL (≈ 1.74 µM)
C=C[C@]1(C)C[C@@H](OC(=O)CSc2nc3cc(OC)ccc3c(=O)[nH]2)[C@]2(C)[C@H](C)CC[C@]3(CCC(=O)[C@H]32)[C@@H](C)[C@@H]1O	0.25 µg/mL (≈ 0.44 µM)	> 64 µg/mL	> 64 µg/mL	0.25 µg/mL (≈ 0.44 µM)	0.25 µg/mL (≈ 0.44 µM)	1 µg/mL (≈ 1.76 µM)
C=C[C@]1(C)C[C@@H](OC(=O)CSc2nc3cccc(OC)c3c(=O)[nH]2)[C@]2(C)[C@H](C)CC[C@]3(CCC(=O)[C@H]32)[C@@H](C)[C@@H]1O	0.25 µg/mL (≈ 0.44 µM)	> 64 µg/mL	> 64 µg/mL	0.25 µg/mL (≈ 0.44 µM)	0.25 µg/mL (≈ 0.44 µM)	4 µg/mL (≈ 7.03 µM)
C=C[C@]1(C)C[C@@H](OC(=O)CSc2nc3ncccc3c(=O)[nH]2)[C@]2(C)[C@H](C)CC[C@]3(CCC(=O)[C@H]32)[C@@H](C)[C@@H]1O	2 µg/mL (≈ 3.71 µM)	> 64 µg/mL	> 64 µg/mL	4 µg/mL (≈ 7.41 µM)	2 µg/mL (≈ 3.71 µM)	8 µg/mL (≈ 14.8 µM)

— ChEMBL document CHEMBL5352460, “Antibacterial activity evaluation of pleuromutilin derivatives with 4(3H)-quinazolinone scaffold against methicillin-resistant Staphylococcusaureus” (Eur J Med Chem, 2023)
